In PubChem BioAssay AID2060604 (Molecular Pharmacology Branch, DTP, NCI, 2025):
One block for each compound: values may come before it.

Test system: 379773-124-R-J2-PDC complex spheroids, viability % test/control
Test: Anticancer human tumor 379773-124-R-J2-PDC patient-derived endometrial carcinoma cell line growth inhibition [CLK]
Conditions: for IC50: curve of first compound; for viability, T/C: stronger effect = lower value
How it was run: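 Multi-cell-type spheroids combined patient-derived tumor cells with HUVEC endothelial cells and human mesenchymal stem cells. Paired agents were dosed in half-log steps down from about clinical Cmax, or from 10 microM where Cmax was unknown.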

[1] = second compound 0.0316 µM, first compound 0.0316 µM
[2] = second compound 0.0316 µM, first compound 0.1 µM
[3] = second compound 0.0316 µM, first compound 0.316 µM
[4] = second compound 0.0316 µM, first compound 1 µM
[5] = second compound 0.0316 µM, first compound 3.16 µM
[6] = second compound 0.0316 µM, first compound 10 µM
[7] = second compound 0.1 µM, first compound 0.0316 µM
[8] = second compound 0.1 µM, first compound 0.1 µM
[9] = second compound 0.1 µM, first compound 0.316 µM
[10] = second compound 0.1 µM, first compound 1 µM
[11] = second compound 0.1 µM, first compound 3.16 µM
[12] = second compound 0.1 µM, first compound 10 µM
[13] = second compound 0.316 µM, first compound 0.0316 µM
[14] = second compound 0.316 µM, first compound 0.1 µM
[15] = second compound 0.316 µM, first compound 0.316 µM
[16] = second compound 0.316 µM, first compound 1 µM
[17] = second compound 0.316 µM, first compound 3.16 µM
[18] = second compound 0.316 µM, first compound 10 µM
[19] = second compound 1 µM, first compound 0.0316 µM
[20] = second compound 1 µM, first compound 0.1 µM
[21] = second compound 1 µM, first compound 0.316 µM
[22] = second compound 1 µM, first compound 1 µM
[23] = second compound 1 µM, first compound 3.16 µM
[24] = second compound 1 µM, first compound 10 µM
[25] = second compound 3.16 µM, first compound 0.0316 µM
[26] = second compound 3.16 µM, first compound 0.1 µM
[27] = second compound 3.16 µM, first compound 0.316 µM
[28] = second compound 3.16 µM, first compound 1 µM
[29] = second compound 3.16 µM, first compound 3.16 µM
[30] = second compound 3.16 µM, first compound 10 µM
[31] = second compound 10 µM, first compound 0.0316 µM
[32] = second compound 10 µM, first compound 0.1 µM
[33] = second compound 10 µM, first compound 0.316 µM
[34] = second compound 10 µM, first compound 1 µM
[35] = second compound 10 µM, first compound 3.16 µM
[36] = second compound 10 µM, first compound 10 µM
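Also: compound exposure lasted seven days before the viability readout.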
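For viability, T/C in this document: 100% = DMSO vehicle control wells.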

Structure (SMILES): COc1ccc([C@@H](O)c2cc(-c3ncnc4cc(N5CCOCC5)ccc34)c(F)cc2Cl)nn1 + CN1CCN(c2cc(C(=O)Nc3cc4cc(-c5cnn(C)c5)ccc4cn3)ccn2)CC1
IC50 (second compound 0.0316 µM): 5320 nM | IC50 (second compound 0.1 µM): 2820 nM | IC50 (second compound 0.316 µM): < 31.6 nM | IC50 (second compound 1 µM): < 31.6 nM | IC50 (second compound 3.16 µM): < 31.6 nM | IC50 (second compound 10 µM): < 31.6 nM | viability, T/C [1]: 87.4% | viability, T/C [2]: 80.7% | viability, T/C [3]: 96.9% | viability, T/C [4]: 79.2% | viability, T/C [5]: 71.8% | viability, T/C [6]: 24.4% | viability, T/C [7]: 70.2% | viability, T/C [8]: 76.5% | viability, T/C [9]: 86.2% | viability, T/C [10]: 47% | viability, T/C [11]: 55% | viability, T/C [12]: 19.1% | viability, T/C [13]: 14.9% | viability, T/C [14]: 16.6% | viability, T/C [15]: 16.6% | viability, T/C [16]: 17.7% | viability, T/C [17]: 12.9% | viability, T/C [18]: 5.38% | viability, T/C [19]: 0.1% | viability, T/C [20]: 0.09% | viability, T/C [21]: 0.11% | viability, T/C [22]: 0.05% | viability, T/C [23]: 1.5% | viability, T/C [24]: 0.08% | viability, T/C [25]: 0.65% | viability, T/C [26]: 1.73% | viability, T/C [27]: 0.73% | viability, T/C [28]: 0.06% | viability, T/C [29]: 0.09% | viability, T/C [30]: 0.08% | viability, T/C [31]: 0.49% | viability, T/C [32]: 0.1% | viability, T/C [33]: 0.79% | viability, T/C [34]: 0.11% | viability, T/C [35]: 0.24% | viability, T/C [36]: 0.14%

Structure (SMILES): COc1cccc2c1C(=O)c1c(O)c3c(c(O)c1C2=O)CC(O)(C(=O)CO)CC3OC1CC(N)C(O)C(C)O1 (stereo unspecified) + CN1CCN(c2cc(C(=O)Nc3cc4cc(-c5cnn(C)c5)ccc4cn3)ccn2)CC1
IC50 (second compound 0.0316 µM): < 31.6 nM | IC50 (second compound 0.1 µM): < 31.6 nM | IC50 (second compound 0.316 µM): < 31.6 nM | IC50 (second compound 1 µM): < 31.6 nM | IC50 (second compound 3.16 µM): < 31.6 nM | IC50 (second compound 10 µM): < 31.6 nM | viability, T/C [1]: 41% | viability, T/C [2]: 11.9% | viability, T/C [3]: 5.69% | viability, T/C [4]: 3.76% | viability, T/C [5]: 0.3% | viability, T/C [6]: 0.91% | viability, T/C [7]: 30.5% | viability, T/C [8]: 10.3% | viability, T/C [9]: 9.14% | viability, T/C [10]: 3.16% | viability, T/C [11]: 0.33% | viability, T/C [12]: 0.09% | viability, T/C [13]: 8.53% | viability, T/C [14]: 8.1% | viability, T/C [15]: 3.09% | viability, T/C [16]: 2.71% | viability, T/C [17]: 0.12% | viability, T/C [18]: 0.21% | viability, T/C [19]: 0.13% | viability, T/C [20]: 0.1% | viability, T/C [21]: 0.78% | viability, T/C [22]: 1.01% | viability, T/C [23]: 0.06% | viability, T/C [24]: 0.16% | viability, T/C [25]: 2.21% | viability, T/C [26]: 0.27% | viability, T/C [27]: 1.48% | viability, T/C [28]: 0.04% | viability, T/C [29]: 0.07% | viability, T/C [30]: 0.17% | viability, T/C [31]: 1.64% | viability, T/C [32]: 0.35% | viability, T/C [33]: 0.12% | viability, T/C [34]: 2.01% | viability, T/C [35]: 0.31% | viability, T/C [36]: 0.12%

IC50 (second compound 0.0316 µM): 2020 nM | IC50 (second compound 0.1 µM): < 31.6 nM | IC50 (second compound 0.316 µM): < 31.6 nM | IC50 (second compound 1 µM): < 31.6 nM | IC50 (second compound 3.16 µM): < 31.6 nM | IC50 (second compound 10 µM): < 31.6 nM
Structure (SMILES): C=C(F)C(=O)N1CCN(c2nc(OCC3CCCN3C)nc3c2CCN(c2cccc4cccc(Cl)c24)C3)CC1CC#N (stereo unspecified) + CNC(=O)c1ccc(Nc2nc(OC3CCCC3)c3c(-c4ccc5nc(C)oc5c4)c[nH]c3n2)c(OC)c1
viability, T/C [1]: 69.1% | viability, T/C [2]: 63.1% | viability, T/C [3]: 72.3% | viability, T/C [4]: 78% | viability, T/C [5]: 36.7% | viability, T/C [6]: 0.16% | viability, T/C [7]: 35.7% | viability, T/C [8]: 42.1% | viability, T/C [9]: 42.7% | viability, T/C [10]: 39.8% | viability, T/C [11]: 26.7% | viability, T/C [12]: 0.13% | viability, T/C [13]: 37.1% | viability, T/C [14]: 41.4% | viability, T/C [15]: 32.4% | viability, T/C [16]: 39% | viability, T/C [17]: 16.2% | viability, T/C [18]: 0.17% | viability, T/C [19]: 25.5% | viability, T/C [20]: 31.4% | viability, T/C [21]: 34.9% | viability, T/C [22]: 34.5% | viability, T/C [23]: 10.4% | viability, T/C [24]: 0.13% | viability, T/C [25]: 30.2% | viability, T/C [26]: 35.3% | viability, T/C [27]: 35.7% | viability, T/C [28]: 35% | viability, T/C [29]: 14.3% | viability, T/C [30]: 2.42% | viability, T/C [31]: 31.6% | viability, T/C [32]: 32.9% | viability, T/C [33]: 27.7% | viability, T/C [34]: 27.3% | viability, T/C [35]: 9.27% | viability, T/C [36]: 0.53%
